According to the supplement of paper PMC10307832:

How the values were obtained:
Experiment in all cases: relative viability (nuclei count vs DMSO), 5 days (fraction); higher = more cells survive
[1] = compound: Cc1ccc2nc(NCCN)c3ncc(C)n3c2c1 + CS(=O)(=O)N1CCN(Cc2cc3nc(-c4cccc5[nH]ncc45)nc(N4CCOCC4)c3s2)CC1 [Pictilisib] (partner 1 µM)
Method in brief: (§1)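 Relative viability is defined as nuclei in treated wells over nuclei in vehicle wells. Duplicate plates were run and medians reported. Lung cancer cell lines in 1536-well plates were dosed by pin tool one day after seeding, with one drug or with a fixed anchor-drug dose plus five library-drug doses (not always all listed) in √10 steps, and nuclei were counted after 5 days.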

[2] = compound: Cc1ccc2nc(NCCN)c3ncc(C)n3c2c1 + COc1cccc2cc(-c3nc([C@H]4CC[C@H](C(=O)O)CC4)n4ncnc(N)c34)[nH]c12 [OSI-027] (partner 0.5 µM)
Method in brief: as §1

[3] = compound: Cc1ccc2nc(NCCN)c3ncc(C)n3c2c1 + Cc1cc(Nc2cc(N3CCN(C)CC3)nc(Sc3ccc(NC(=O)C4CC4)cc3)n2)n[nH]1 [Tozasertib] (partner 0.1 µM)
Method in brief: as §1

[4] = compound: Cc1ccc2nc(NCCN)c3ncc(C)n3c2c1 + C[C@]1(O)C[C@@H](c2nc(-c3ccc4ccc(-c5ccccc5)nc4c3)c3c(N)nccn32)C1 [Linsitinib] (partner 1 µM)
Method in brief: as §1

Cell Line	relative viability ([1]; first compound 0.04 µM)	relative viability ([1]; first compound 0.1265 µM)	relative viability ([1]; first compound 0.4 µM)	relative viability ([1]; first compound 1.265 µM)	relative viability ([1]; first compound 4 µM)	relative viability ([2]; first compound 0.04 µM)	relative viability ([2]; first compound 0.1265 µM)	relative viability ([2]; first compound 0.4 µM)	relative viability ([2]; first compound 1.265 µM)	relative viability ([2]; first compound 4 µM)	relative viability ([3]; first compound 0.04 µM)	relative viability ([3]; first compound 0.1265 µM)	relative viability ([3]; first compound 0.4 µM)	relative viability ([3]; first compound 1.265 µM)	relative viability ([3]; first compound 4 µM)	relative viability ([4]; first compound 0.04 µM)	relative viability ([4]; first compound 0.1265 µM)	relative viability ([4]; first compound 0.4 µM)	relative viability ([4]; first compound 1.265 µM)	relative viability ([4]; first compound 4 µM)
201T	0.701	0.716	0.639	0.66	0.652	0.863	0.586	0.761	0.805	0.64	0.985	0.976	0.908	0.971	0.913	1	1.09	1.04	0.98	0.992
A549	0.587	0.439	0.451	0.451	0.345	–	–	–	–	–	–	–	–	–	–	0.791	0.557	0.598	0.423	0.534
A-427	0.743	0.653	0.596	0.691	0.702	0.499	0.408	0.488	0.49	0.451	0.229	0.21	0.185	0.212	0.196	0.922	1.01	1.08	1.09	1.19
ABC-1	0.721	0.78	0.822	0.813	0.678	0.595	0.559	0.564	0.439	0.484	0.171	0.15	0.171	0.187	0.22	0.95	0.806	0.812	0.818	0.594
BEN	0.628	0.584	0.596	0.481	0.556	0.316	0.291	0.328	0.276	0.324	0.501	0.436	0.498	0.469	0.559	0.916	0.785	1.03	0.795	0.914
CAL-12T	0.521	0.517	0.389	0.364	0.232	0.798	0.572	0.824	0.76	0.52	0.288	0.353	0.376	0.291	0.269	0.835	0.873	0.853	0.877	0.731
COR-L23	0.866	0.7	0.741	0.85	0.741	0.911	0.764	0.777	0.729	0.61	0.202	0.243	0.218	0.135	0.173	0.993	0.773	0.873	0.988	0.816
COR-L 105	0.507	0.399	0.422	0.468	0.31	0.79	0.753	0.666	0.691	0.723	0.374	0.355	0.294	0.353	0.302	1.11	0.964	0.873	1.1	0.845
Calu-6	1	0.781	0.989	0.836	0.475	–	–	–	–	–	–	–	–	–	–	0.872	0.895	0.966	0.982	0.983
ChaGo-K-1	0.697	0.743	0.661	0.671	0.443	0.601	0.586	0.601	0.475	0.419	0.258	0.253	0.253	0.236	0.238	–	–	–	–	–
EBC-1	0.4	0.35	0.336	0.246	0.263	–	–	–	–	–	–	–	–	–	–	1.08	1.13	0.874	0.866	0.793
EKVX	0.406	0.356	0.416	0.329	0.338	0.754	0.688	0.658	0.71	0.617	0.433	0.359	0.366	0.349	0.407	1.04	0.972	0.962	0.865	0.805
EMC-BAC-2	0.586	0.58	0.554	0.569	0.579	0.387	0.381	0.344	0.394	0.377	0.297	0.282	0.313	0.265	0.288	0.799	0.806	0.822	0.819	0.831
EPLC-272H	0.33	0.356	0.288	0.336	0.306	0.366	0.296	0.32	0.346	0.317	0.249	0.33	0.348	0.237	0.251	1.44	1.02	1.13	1.32	1.15
H3255	0.555	0.431	0.487	0.38	0.456	0.663	0.588	0.592	0.522	0.541	0.703	0.55	0.629	0.477	0.455	0.955	0.876	0.819	0.915	0.944
HARA	0.524	0.362	0.436	0.39	0.418	0.488	0.505	0.233	0.459	0.553	0.77	0.156	0.126	0.107	0.11	1.01	0.933	0.885	0.791	0.927
HCC-15	0.799	0.761	0.666	0.707	0.694	0.708	0.807	0.544	0.659	0.581	0.382	0.412	0.439	0.345	0.247	0.886	0.833	0.855	0.805	0.905
HCC-44	0.692	0.777	0.595	0.535	0.565	0.49	0.451	0.448	0.631	0.384	1.06	0.896	1.04	0.753	0.645	0.869	0.632	0.652	0.625	0.69
HCC-78	0.229	0.23	0.222	0.215	0.217	0.417	0.421	0.371	0.341	0.337	0.4	0.375	0.291	0.403	0.388	0.539	0.537	0.496	0.491	0.448
HCC-366	0.131	0.123	0.163	0.114	0.116	1.11	1.05	0.677	0.892	0.899	0.119	0.135	0.215	0.116	0.221	0.622	0.612	0.642	0.78	0.49

Cell Line	relative viability ([1]; first compound 0.04 µM)	relative viability ([1]; first compound 0.1265 µM)	relative viability ([1]; first compound 0.4 µM)	relative viability ([1]; first compound 1.265 µM)	relative viability ([1]; first compound 4 µM)	relative viability ([2]; first compound 0.04 µM)	relative viability ([2]; first compound 0.1265 µM)	relative viability ([2]; first compound 0.4 µM)	relative viability ([2]; first compound 1.265 µM)	relative viability ([2]; first compound 4 µM)	relative viability ([3]; first compound 0.04 µM)	relative viability ([3]; first compound 0.1265 µM)	relative viability ([3]; first compound 0.4 µM)	relative viability ([3]; first compound 1.265 µM)	relative viability ([3]; first compound 4 µM)	relative viability ([4]; first compound 0.04 µM)	relative viability ([4]; first compound 0.1265 µM)	relative viability ([4]; first compound 0.4 µM)	relative viability ([4]; first compound 1.265 µM)	relative viability ([4]; first compound 4 µM)
HCC-827	0.947	0.929	0.891	0.86	1.07	0.802	0.779	0.873	0.841	0.736	0.465	0.433	0.454	0.459	0.425	0.932	0.936	0.91	0.946	0.938
HOP-62	0.829	0.567	0.492	0.589	0.71	0.93	0.83	0.582	0.848	0.813	0.383	0.379	0.396	0.367	0.402	1.11	0.912	1.11	0.922	0.89
IA-LM	0.343	0.335	0.188	0.238	0.347	–	–	–	–	–	–	–	–	–	–	0.825	0.559	0.542	0.658	0.495
LC-2-ad	0.504	0.683	0.439	0.429	0.423	0.866	0.825	0.789	0.889	0.784	0.445	0.491	0.533	0.387	0.42	0.851	0.871	0.891	0.864	0.806
LCLC-97TM1	0.208	0.248	0.187	0.216	0.199	0.592	0.463	0.452	0.828	0.437	0.201	0.215	0.177	0.218	0.187	0.204	0.166	0.185	0.19	0.201
LCLC-103H	0.534	0.644	0.561	0.6	0.576	0.551	0.492	0.464	0.494	0.421	0.426	0.525	0.384	0.427	0.439	1.06	1.06	1.06	1.14	1.16
LK-2	0.585	0.547	0.604	0.406	0.463	0.173	0.202	0.182	0.188	0.18	0.171	0.174	0.152	0.154	0.179	0.561	0.439	0.531	0.194	0.37
LOU-NH91	0.528	0.534	0.514	0.56	0.475	0.795	0.726	0.708	0.762	0.668	0.654	0.628	0.638	0.626	0.617	0.964	0.865	0.977	0.942	0.959
LU99A	0.346	0.328	0.327	0.349	0.321	0.34	0.268	0.283	0.273	0.298	0.308	0.292	0.248	0.298	0.263	0.568	0.524	0.526	0.561	0.522
NCI-H522	–	–	–	–	–	0.622	0.802	0.649	0.657	0.613	0.557	0.647	0.555	0.517	0.592	–	–	–	–	–
NCI-H1299	0.864	0.761	0.735	0.55	0.263	–	–	–	–	–	–	–	–	–	–	1.01	0.925	0.962	0.979	0.924
NCI-H1563	0.706	0.582	0.701	0.607	0.633	0.78	0.769	0.768	0.796	0.728	–	–	–	–	–	1.31	1.02	1.1	1.39	1.21
NCI-H1623	–	–	–	–	–	0.418	0.444	0.451	0.39	0.425	0.453	0.486	0.451	0.355	0.354	–	–	–	–	–
NCI-H1648	–	–	–	–	–	0.242	–	0.249	–	0.233	0.498	–	0.546	–	0.3	–	–	–	–	–
NCI-H1650	0.531	0.564	0.429	0.527	0.515	0.784	0.563	0.53	0.548	0.438	0.434	0.431	0.513	0.439	0.296	–	–	–	–	–
NCI-H1703	0.299	0.248	0.257	0.321	0.233	–	–	–	–	–	–	–	–	–	–	1.43	0.74	0.72	1.23	0.715
NCI-H1792	0.348	0.244	0.309	0.259	0.242	0.683	0.756	0.707	0.704	0.638	–	–	–	–	–	0.627	0.543	0.484	0.463	0.405
NCI-H2170	0.31	0.337	0.361	0.292	0.319	0.737	0.737	0.657	0.715	0.701	0.755	0.625	0.694	0.671	0.679	–	–	–	–	–
NCI-H2342	–	–	–	–	–	0.659	0.607	0.767	0.551	0.595	0.481	0.583	0.47	0.599	0.463	–	–	–	–	–
SW 900	–	–	–	–	–	0.453	0.661	–	0.465	0.553	0.491	0.513	–	0.471	0.612	–	–	–	–	–
